Assay results taken from patent publication US6596703B1, “Promotion of wound healing utilizing steroids having reduced deteriorous systemic side effects typical of glucocorticoids, mineralocorticoids and sex steroids” (Jagotec AG, priority 1997, dated 2003).
Entries after “also recorded” stand apart in the source; their conditions may differ. Like-named read-outs stand apart in the source and are kept apart here.

Legend:
[1] = test system: murine chronic granulomatous air pouch; assay: Inflammation-induced angiogenesis in the murine chronic granulomatous air pouch, s.c. dosing from induction (day 0) to day 6; assay type: in vivo, mice; details: for Vascular Index: mean ± s.e.m.; for angiostatic action: administered alone s.c. 1 mg/kg, no heparin, prophylactic dosing (Tables 1, 2)
Protocol: (§1) Chronic granulomatous air pouches were raised in mice by known methods (the reader is referred to PCT/CA94/00207 at page 16 for an experimental method in this regard) utilizing 0.5 ml Freund's Complete adjuvant with 0.1% croton oil injected into 1 day old air pouches. Animals were dosed with saline/0.01% DMSO either subcutaneously (s.c.) into the nape of the neck, or with saline applied topically in 0.1 ml 2.5% hyaluronan. Vascular casts incorporating carmine in gelatin were formed at termination, the tissues weighed dry (mg), papain digested, and the carmine content (μg) determined by spectrophotometric assay. Vascularity was calculated as the Vascularity Index (μg/mg). Results are expressed as means±s.e.m.
Investigation of the action of tetrahydrocortisol, tetrahydrocortisone and tetrahydrocortexolone and the like on inflammation-induced angiogenesis in the murine chronic granulomatous air pouch was pursued. Groups of mice (n=8-13) were dosed with tetrahydrocortisol, tetrahydrocortisone or tetrahydrocortexolone or the like (0.1-3.0 mg/kg in 0.1 ml saline/0.01% DMSO, s.c) daily from induction (day 0) to termination on day 6. Controls were dosed with 0.1 ml saline/0.01% DMSO subcutaneously.
Investigation of the action of angiostatic and anti-inflammatory steroids on inflammation-induced angiogenesis in the murine chronic granulomatous air pouch was pursued. Groups of mice (n=8-13) were treated with the steroids at 1.0 mg/kg (0.1 ml saline/0.01% DMSO, s.c), except of dexamethasone at (0.2 mg/kg), daily from the day of induction (day 0) to termination on day 6. Controls were given 0.1 ml saline/0.01% DMSO s.c. (Key: Tetrahydrocortisol (TH-F), Tetrahydrocortisone (TH-E).

[2] = test system: murine chronic granulomatous air pouch; assay: Inflammatory-induced angiogenesis in the murine chronic granulomatous air pouch, topical application in 2.5% hyaluronan; assay type: in vivo, mice; details: for effect on angiogenesis: topical application (1 mg/kg) in 2.5% hyaluronan; for Vascular Index: 0.1 ml 2.5% hyaluronan alone topically daily day 0 to day 6
Protocol: as §1
(§2) Investigation of the action of topical tetrahydrocortisol, tetrahydrocortisone, tetrahydrocortexolone and the like on inflammatory-induced angiogenesis in the murine chronic granulomatous air pouch was pursued. Groups of mice (n=8-13) were depilated and the inflammation induced 4 days later. Tetrahydrocortisol (TH-F) and tetrahydrocortisone (TH-E) were applied topically (1 mg/kg) in 2.5% hyaluronan (0.1 ml) daily from the day of induction (day 0) to termination (day 6). Controls were dosed with 0.1 ml 2.5% hyaluronan alone.
as §2, with “tetrahydrocortisone and” for “tetrahydrocortisone,”, “was” for “and tetrahydrocortisone (TH-E) were”, “with” for “(1 mg/kg) in”, “ml of composition 0.1-1.0 mg of tetrahydrocortisol/kg) by weight” for “ml)”

[3] = test system: established 7-day old vasculature of the murine chronic granulomatous air pouch; assay: Established 7-day old vasculature of the murine chronic granulomatous air pouch, s.c. dosing from day 7 to day 14 or 21; assay type: in vivo, mice; details: for Vascular Index: Table 3
Protocol: as §1
Investigation of the action of tetrahydrocortisol, tetrahydrocortisone and tetrahydrocortexolone and the like on the established 7-day old vasculature of the murine chronic granulomatous air pouch was pursued. Groups of mice were dosed with tetrahydrocortisol, tetrahydrocortisone or tetrahydrocortexolone or the like (0.1-3.0 mg/kg in 0.1 ml saline/0.01% DMSO, s.c) daily from day 7 to termination at day 14 or day 21. Controls were dosed with 0.1 ml saline (0.01% DMSO alone).

[4] = test system: murine chronic granulomatous air pouch; details: s.c. at 1 mg/kg; reference (1); cited from earlier work
[5] = Table 1, 1 mg/kg s.c. daily day 0 to day 6
[6] = Table 2, 1.0 mg/kg s.c. daily day 0 to day 6

C[C@]12CCC(=O)C=C1CC[C@@H]1[C@@H]2C(=O)C[C@@]2(C)[C@H]1CC[C@]2(O)C(=O)CO [Cortisone, cortisone]
Vascular Index [1, 5]: 8.23 ± 0.62 µg/mg
angiostatic action [1]: inactive
effect on angiogenesis [2]: angiostatic

C[C@]12CCC(O)C[C@H]1CC[C@@H]1[C@@H]2C(=O)C[C@@]2(C)[C@H]1CC[C@]2(O)C(=O)CO (some centres unmarked) [TH-E, 5-pregnane-3,17,21-triol-11,20-dione]
Vascular Index [1, 6]: 18.860 ± 1.830 µg/mg
angiostatic action [1]: without effect
Vascular Index ([3]; 0.1 mg/kg s.c. daily from day 7, termination Day 14): 18.18 ± 1.97 µg/mg
Vascular Index ([3]; 0.1 mg/kg s.c. daily from day 7, termination Day 21): 18.59 ± 1.84 µg/mg
Vascular Index ([3]; 0.3 mg/kg s.c. daily from day 7, termination Day 14): 20.38 ± 1.91 µg/mg
Vascular Index ([3]; 0.3 mg/kg s.c. daily from day 7, termination Day 21): 31.33 ± 2.91 µg/mg
Vascular Index ([3]; 1.0 mg/kg s.c. daily from day 7, termination Day 14): 22.49 ± 3.77 µg/mg
Vascular Index ([3]; 1.0 mg/kg s.c. daily from day 7, termination Day 21): 25.75 ± 2.40 µg/mg
Vascular Index ([3]; 3.0 mg/kg s.c. daily from day 7, termination Day 14): 18.87 ± 1.29 µg/mg
Vascular Index ([3]; 3.0 mg/kg s.c. daily from day 7, termination Day 21): 25.91 ± 1.85 µg/mg
angiostatic action ([3]; s.c., no heparin, therapeutic dosing (Table 3)): without effect
effect on angiogenesis ([2]; listed as tetrahydrocortisone): significant acceleration of angiogenesis; also recorded: Definite angiogenesis action
effect on angiogenesis [4]: capable of inhibiting angiogenesis

C[C@]12CCC(O)CC1CC[C@@H]1[C@@H]2C(O)C[C@@]2(C)[C@H]1CC[C@]2(O)C(=O)CO (some centres unmarked) [TH-F, 5-pregnane-3,11,17,21-tetrol-20-one]
Vascular Index [1, 5]: 5.29 ± 0.61 µg/mg
Vascular Index [1, 6]: 13.088 ± 1.630 µg/mg
angiostatic action [1]: decrease in vascularity
effect on angiogenesis ([2]; listed as tetrahydrocortisol): significant acceleration of angiogenesis; also recorded: Definite angiogenesis action
dose relation of acceleration of angiogenesis ([2]; topical in 2.5% hyaluronan, 0.1-1.0 mg/kg (Table 5)): dose related
effect on angiogenesis [4]: capable of inhibiting angiogenesis

C[C@]12CC[C@@H](O)C[C@H]1CC[C@@H]1[C@@H]2CC[C@@]2(C)[C@H]1CC[C@]2(O)C(=O)CO [TH-S, tetrahydrocortexolone]
effect on angiogenesis [4]: capable of inhibiting angiogenesis

heparin
Vascular Index ([1]; Table 1, 1000 U p.o.): 7.93 ± 0.83 µg/mg

hyaluronan [HA]
Vascular Index ([2]; Table 4): 11.180 ± 1.980 µg/mg
Vascular Index ([2]; Table 5): 11.180 ± 1.98 µg/mg
